Source: US6858622B2, “Cycloalkano-indole and -azaindole derivatives” (Bayer Aktiengesellschaft, priority 1994, dated 2005)

Key:
[1] = system: release of ApoB-100-associated lipoproteins from HepG2 cells; assay: Inhibition of the release of ApoB-100-associated lipoproteins from liver cells (HepG2, anti-LDL immunoassay); assay type: cell-based; details: Homo sapiens; substance concentration at which light absorption at 450 nm (ApoB-100-associated particles in HepG2 supernatant) is inhibited by 50% vs solvent control
Description: I. Inhibition of the Release of ApoB-100-Associated Lipoproteins
The test for detecting the inhibition of the release of ApoB-100-associated lipoproteins from liver cells was carried out in vitro using cultured liver cells, preferably using cells of the human line HepG2. These cells are cultured under standard conditions in medium for the culture of eukaryotic cells, preferably in RPMI 1640 with 10% foetal calf serum. HepG2 cells synthesize and secrete into the culture supernatant ApoB-100-associated lipoprotein particles which in principle are built up in a similar manner to the VLDL and LDL particles which are to be found in the plasma.
These particles can be detected using an immunoassay for human LDL. This immunoassay is carried out using antibodies which have been induced against human LDL in rabbits under standard conditions. The anti-LDL antibodies (rabbit anti-LDL Ab) were purified by affinity chromatography on an immunosorbent using human LDL. […] The immune complex located on the plastic surface is detected using monoclonal antibodies which have been induced against human LDL and purified according to standard conditions. […] After acidification of the reaction mixture with H2SO4, the specific light absorption at 450 nm is determined, which is a measure of the amount of ApoB-100-associated particles which have been secreted into the culture supernatant by the HepG2 cells. […]

VLDL secretion = assay: Determination of the VLDL secretion in vivo in the hamster (Triton WR-1339 triglyceride rise); set-up: species or system golden hamsters; details: Mesocricetus auratus, po, VLDL secretion measured as triglyceride rise after Triton WR-1339
Description: 2. Determination of the VLDL Secretion In Vivo in the Hamster
The effect of the test substances on VLDL secretion in vivo is investigated in the hamster. To do this, golden hamsters are anaesthetized with Ketaset (83 mg/kg s.c.) and Nembutal (50 mg/kg i.p.) after premedication with atropine ([…] s.c.). When the animals have become reflex-free, the jugular vein is exposed and cannulated. 0.25 ml/kg of a 20% strength solution of Triton WR-1339 in physiological saline solution is then administered. This detergent inhibits the lipoprotein lipase and thus leads to a rise in the triglyceride level as a result of a lack of catabolism of secreted VLDL particles. This triglyceride rise can be used as a measure of the VLDL secretion rate.
Blood is taken from the animals before and also one and two hours after administration of the detergent by puncture of the retroorbital venous plexus. […] The triglyceride concentration in the serum thus obtained is determined with the aid of a modified commercially available enzyme test (Merckotest® triglyceride No. 14354). […] The optical density is then determined at a wavelength of 492 nm in an automatic plate-reading apparatus (SLT Spectra). […] The triglyceride concentration contained in the samples is determined with the aid of a standard curve measured in parallel. […]

Row | Compound | IC50 [1] [nM] | ED50 (VLDL secretion) [mg/kg]
1 | Cc1cc(C)c2c3c(n(Cc4ccc(C(C(=O)N[C@@H](CO)c5ccccc5)C5CCCC5)cc4)c2n1)CCCC3 (stereo partly drawn) [Ex. No. 1, 2-S— and 2-(R)-2-[4-(2,4Dimethyl-5,6,7,8-tetrahydro-α-carbolin-9-yl)-methyl-phenyl]-2-cyclopentyl-acetic acid N—[(R)-phenylglycinolamide]] | 28 | 
2 | Cc1cc(C)c2c3c(n(Cc4ccc(C(C(=O)N[C@@H](CO)c5ccccc5)C5CCCC5)cc4)c2n1)CCCC3 (single isomer, unassigned) [Ex. No. 2] |  | 10 to 15
